How the values were obtained:
[1] = test system: L1210; experiment: Antileukemic activity in L1210 leukemic CD2F1 female mice (increase in life span); assay type: in vivo; conditions: for ED50: Mus musculus, L1210 leukemic CD2F1 female mice, estimated by regression analysis, read-out: ED50 (dose producing 50% increase in life span of treated mice over control); for advantage over parent ifosfamide: racemic or enantiomeric compounds, versus ifosfamide, conclusion from Table 1
Procedure: (§1) Antileukemic activity against L1210, toxicity and therapeutic
Antileukemic activity was evaluated in L1210 leukemic CD2F1 female
mice ED50 doses producing the 50% increase in life span of treated
mice over control were estimated from experimental data by regression
(§2) anlysis. Toxicity (LD50) were determined in healthy CD2F1 femal

[2] = Toxicity (LD50) in healthy CD2F1 female mice, 14 days observation; conditions: mouse, in vivo; for selectivity ratio: TI from LD50 (healthy CD2F1 mice) and ED50 (L1210 leukemic CD2F1 mice), read-out: Therapeutic index; for LD50 at 336 h: healthy CD2F1 female mice, 14 days observation period
Procedure: as §1, §2
mice during 14 days observation period. TI = LD50

| Compound | ED50 [1] [mg/kg] | advantage over parent ifosfamide [1] | selectivity ratio [2] | LD50 at 336 h [2] [mg/kg] |
| --- | --- | --- | --- | --- |
| O=P1(NCCBr)OCCCN1CCBr (centres unmarked) [X=Br, Y=Br, 2-(2-Bromoethylamino)-2-oxo-3-(2-bromoethyl)-1.3.2-oxazaphosphorinane] | 43 | more advantageous than parent ifosfamide | 10.7 | 459 |
| O=P1(NCCCl)OCCCN1CCBr (centres unmarked) [X=Cl, Y=Br, 2-(2-Chloroethylamino)-2-oxo-3-(2-bromoethyl)-1.3.2-oxazaphosphorinane] | 44 | more advantageous than parent ifosfamide | 11.6 | 512 |
| O=P1(NCCCl)OCCCN1CCCl (centres unmarked) [X=Cl, Y=Cl, 2-(2-chloroethylamino)-2-oxo-3-(2-chloroethyl)-1.3.2-oxazaphosphorinane, reference compound] | 103 |  | 6.6 | 680 |

From US4684742A, “Process for the production of 2-(2-halogenoethylamino)-2-oxo-3-(2-halogenoethyl)-1.3.2.-oxazaphosphori nanes” (Polska Akademia Nauk-Centrum Baden Molekularnych i …, priority 1984, dated 1987)
